This passage reports IC50 and inhibition results from ChEMBL document CHEMBL6114975, “Discovery of 2,4-quinazolinedione derivatives as LC3B recruiters in the facilitation of protein complex degradations” (Eur J Med Chem, 2025).

In one assay the test system is WSUDLCL2. The assay is described as follows: Antiproliferative activity against human WSUDLCL2 cells.
Assay [1] has as its target Cyclin-dependent kinase 9 (Homo sapiens) (UniProt P50750). The conditions noted are these: dose 10.0 nM.
Description: Inhibition of CDK9 (unknown origin) at 10 nM relative to control
The target is the same in assay [2]. The conditions noted are these: dose 100.0 nM.
Description: Inhibition of CDK9 (unknown origin) at 100 nM relative to control

Cyclin-dependent kinase 9 (Homo sapiens), sequence (P50750 whole entry): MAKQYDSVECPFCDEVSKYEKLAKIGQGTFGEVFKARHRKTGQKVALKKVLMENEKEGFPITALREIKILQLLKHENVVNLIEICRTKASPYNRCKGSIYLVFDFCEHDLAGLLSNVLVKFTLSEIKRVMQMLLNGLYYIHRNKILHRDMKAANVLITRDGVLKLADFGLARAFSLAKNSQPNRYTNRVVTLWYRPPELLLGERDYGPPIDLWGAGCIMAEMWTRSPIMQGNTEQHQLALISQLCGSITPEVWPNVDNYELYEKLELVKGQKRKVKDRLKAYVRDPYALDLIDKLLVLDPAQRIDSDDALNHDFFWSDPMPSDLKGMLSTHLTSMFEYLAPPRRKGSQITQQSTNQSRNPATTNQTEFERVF

For the molecule `CC(C)(C)c1cnc(CSc2cnc(NC(=O)C3CCN(CCCn4c(=O)n(Cc5ccncc5)c(=O)c5cccnc54)CC3)s2)o1`, the IC50 (in general, the point on the concentration scale where inhibition reaches its midpoint) with WSUDLCL2 is 13 nM. Further, the inhibition (usually the drop in the measured response relative to a control, in per cent) in assay [1] worked out at 30%; in assay [2], 88%.

For the molecule `CC(C)(C)c1cnc(CSc2cnc(NC(=O)C3CCN(CCCn4c(=O)n(Cc5ccncc5)c(=O)c5ccc(Cl)cc54)CC3)s2)o1`, in the assay with WSUDLCL2, inhibition was half-maximal at 82 nM (IC50). Besides, the inhibition in assay [1] turned out to be 13%; in assay [2], 85%.

With `CCn1c(=O)c2ccc(Cl)cc2n(CCCN2CCC(C(=O)Nc3ncc(SCc4ncc(C(C)(C)C)o4)s3)CC2)c1=O`, half-maximal inhibition in the assay on WSUDLCL2 (IC50) was put at 332 nM. Besides, the inhibition in assay [1] is -2%; in assay [2], 82%.

Turning to `CC(C)(C)c1cnc(CSc2cnc(NC(=O)C3CCN(CCCn4c(=O)n(Cc5ccccc5)c(=O)c5cccnc54)CC3)s2)o1`, in the assay with WSUDLCL2, the IC50 is 326 nM. Also, the inhibition amounted to 19% in assay [1] and 84% in assay [2].

For the molecule `CC(C)(C)c1cnc(CSc2cnc(NC(=O)C3CCNCC3)s2)o1` [BMS-387032], the IC50 in the assay with WSUDLCL2 was found to be 201 nM. Further, the inhibition worked out at 22% in assay [1] and 83% in assay [2].

In the assay on WSUDLCL2, `CCn1c(=O)c2cccnc2n(CCCN2CCC(C(=O)Nc3ncc(SCc4ncc(C(C)(C)C)o4)s3)CC2)c1=O` had an IC50 of 39 nM. Besides, the inhibition in assay [1] was 27%; in assay [2], 83%.

As to `CC(C)(C)c1cnc(CSc2cnc(NC(=O)C3CCN(CC(=O)NCCOCCOCCOCCNc4cccc5c4C(=O)N(C4CCC(=O)NC4=O)C5=O)CC3)s2)o1` (stereo not given), the IC50 in the assay with WSUDLCL2 turned out to be 310 nM. In addition, in assay [2], the inhibition is 13%.
